In ChEMBL document CHEMBL1909046, “DrugMatrix in vitro pharmacology data”:

Tests used:
[1] = biological target: T1, Adenosine receptor A1 (Homo sapiens, UniProt P30542); format: cell membranes, CHO, Membrane; details: cho;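 also: radioligand binding assay at the adenosine A1 receptor, with DPCPX serving as the labelled ligand; in other assays of this panel Not Active means under 50% inhibition at 10 µM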
T1 sequence (P30542 whole entry): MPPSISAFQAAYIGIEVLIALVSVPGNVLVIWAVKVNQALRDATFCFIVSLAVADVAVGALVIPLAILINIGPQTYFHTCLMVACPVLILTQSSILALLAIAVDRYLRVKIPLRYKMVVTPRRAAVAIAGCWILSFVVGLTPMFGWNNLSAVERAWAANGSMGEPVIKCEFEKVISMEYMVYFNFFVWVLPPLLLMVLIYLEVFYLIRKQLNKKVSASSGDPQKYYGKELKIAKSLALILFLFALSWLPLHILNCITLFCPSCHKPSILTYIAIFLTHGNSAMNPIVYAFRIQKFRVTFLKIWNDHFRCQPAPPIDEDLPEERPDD

[2] = DRUGMATRIX: Platelet-Derived Growth Factor (PDGF) radioligand binding (ligand: [125I] PDGF); format: cell-based; details: nih3t3; Not Active = under 50% inhibition at 10 µM
[3] = DRUGMATRIX: Imidazoline I2, Central radioligand binding (ligand: [3H] Idazoxan); format: cell membranes, Rattus norvegicus, Wistar, Cerebral cortex, Membrane; details: Not Active = under 50% inhibition at 10 µM
[4] = DRUGMATRIX: Glutamate, NMDA, Phencyclidine radioligand binding (ligand: [3H] TCP); format: cell membranes, Rattus norvegicus, Wistar, Cerebral cortex, Membrane; details: Not Active = under 50% inhibition at 10 µM
[5] = biological target: Histamine H2 receptor (Homo sapiens, UniProt P25021); format: cell membranes, CHO-K1, Membrane; details: cho-k1; also: in other assays of this panel Not Active means under 50% inhibition at 10 µM
[6] = biological target: T2, C-X-C chemokine receptor type 2 (Homo sapiens, UniProt P25025); format: cell membranes, Membrane; details: cho-k1; also: in other assays of this panel Not Active means under 50% inhibition at 10 µM
T2 sequence (P25025 whole entry): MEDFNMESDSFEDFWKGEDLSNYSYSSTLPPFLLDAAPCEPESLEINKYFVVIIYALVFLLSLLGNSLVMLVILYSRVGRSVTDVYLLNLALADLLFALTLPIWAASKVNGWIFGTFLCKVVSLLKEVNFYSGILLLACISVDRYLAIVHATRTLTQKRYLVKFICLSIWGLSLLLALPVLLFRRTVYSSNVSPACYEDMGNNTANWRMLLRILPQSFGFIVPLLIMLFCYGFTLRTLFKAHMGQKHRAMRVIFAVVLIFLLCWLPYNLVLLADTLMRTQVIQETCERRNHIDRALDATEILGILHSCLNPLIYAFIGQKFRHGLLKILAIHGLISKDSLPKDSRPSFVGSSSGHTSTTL

[7] = DRUGMATRIX: GABAA, Chloride Channel, TBOB radioligand binding (ligand: [3H] TBOB); format: cell membranes, Rattus norvegicus, Wistar, Cerebral cortex, Membrane; details: Not Active = under 50% inhibition at 10 µM
[8] = biological target: Aldo-keto reductase family 1 member B1 (Rattus norvegicus, UniProt P07943); format: tissue-based, Lens of camera-type eye;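 also: inhibition of aldose reductase enzyme activity, measured with DL-glyceraldehyde as the substrate; in other assays of this panel Not Active means under 50% inhibition at 10 µM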
[9] = DRUGMATRIX: Glutamate, NMDA, Agonism radioligand binding (ligand: [3H] CGP-39653); format: cell membranes, Rattus norvegicus, Wistar, Cerebral cortex, Membrane; details: Not Active = under 50% inhibition at 10 µM
[10] = biological target: Substance-P receptor (Homo sapiens, UniProt P25103); format: cell membranes, CHO, Membrane; details: cho; also: in other assays of this panel Not Active means under 50% inhibition at 10 µM
[11] = biological target: T3, Neuropeptide Y receptor type 2 (Homo sapiens, UniProt P49146); format: cell membranes, Membrane; details: kan-ts; also: in other assays of this panel Not Active means under 50% inhibition at 10 µM
T3 sequence (P49146 whole entry): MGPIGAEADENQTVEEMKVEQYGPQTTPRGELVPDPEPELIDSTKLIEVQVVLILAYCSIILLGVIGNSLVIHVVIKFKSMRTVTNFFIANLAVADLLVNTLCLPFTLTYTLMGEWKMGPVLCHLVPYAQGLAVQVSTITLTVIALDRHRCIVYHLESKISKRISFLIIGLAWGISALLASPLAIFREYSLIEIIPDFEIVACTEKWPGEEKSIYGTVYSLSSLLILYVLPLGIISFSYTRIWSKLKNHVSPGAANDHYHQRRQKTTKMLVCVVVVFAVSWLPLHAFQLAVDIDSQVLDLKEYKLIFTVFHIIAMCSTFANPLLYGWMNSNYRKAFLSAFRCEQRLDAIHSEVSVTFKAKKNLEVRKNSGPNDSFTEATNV

[12] = DRUGMATRIX: Phosphodiesterase PDE3 enzyme inhibition (substrate: [3H]cAMP + cAMP); format: tissue-based, Homo sapiens; details: platelet; Not Active = under 50% inhibition at 10 µM
[13] = biological target: Melanocortin receptor 4 (Homo sapiens, UniProt P32245); format: cell membranes, Membrane; details: hek293; also: in other assays of this panel Not Active means under 50% inhibition at 10 µM
[14] = biological target: 5-hydroxytryptamine receptor 1B (Rattus norvegicus, UniProt P28564); format: cell membranes, Wistar, Cerebral cortex, Membrane; also: in other assays of this panel Not Active means under 50% inhibition at 10 µM
[15] = biological target: Cytochrome P450 3A4 (Homo sapiens, UniProt P08684); details: bti-tn-5b1-4; also: in other assays of this panel Not Active means under 50% inhibition at 10 µM
[16] = biological target: D(3) dopamine receptor (Homo sapiens, UniProt P35462); assay: DRUGMATRIX: Dopamine D3 radioligand binding (ligand: [3H] Spiperone); format: cell membranes, CHO, Membrane; details: cho
Sequence of D(3) dopamine receptor (P35462 whole entry): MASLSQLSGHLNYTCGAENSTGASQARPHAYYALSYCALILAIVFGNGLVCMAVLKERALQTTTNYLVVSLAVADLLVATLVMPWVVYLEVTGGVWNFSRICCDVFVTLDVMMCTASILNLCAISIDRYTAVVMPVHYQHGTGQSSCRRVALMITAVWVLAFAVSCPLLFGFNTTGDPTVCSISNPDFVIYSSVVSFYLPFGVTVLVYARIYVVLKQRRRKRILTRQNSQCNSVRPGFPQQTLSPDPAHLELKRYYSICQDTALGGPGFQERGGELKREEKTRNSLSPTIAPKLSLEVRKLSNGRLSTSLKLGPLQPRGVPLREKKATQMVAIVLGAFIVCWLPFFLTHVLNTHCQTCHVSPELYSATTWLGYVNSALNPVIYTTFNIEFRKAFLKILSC

Sequence of 5-hydroxytryptamine receptor 1B (P28564 whole entry): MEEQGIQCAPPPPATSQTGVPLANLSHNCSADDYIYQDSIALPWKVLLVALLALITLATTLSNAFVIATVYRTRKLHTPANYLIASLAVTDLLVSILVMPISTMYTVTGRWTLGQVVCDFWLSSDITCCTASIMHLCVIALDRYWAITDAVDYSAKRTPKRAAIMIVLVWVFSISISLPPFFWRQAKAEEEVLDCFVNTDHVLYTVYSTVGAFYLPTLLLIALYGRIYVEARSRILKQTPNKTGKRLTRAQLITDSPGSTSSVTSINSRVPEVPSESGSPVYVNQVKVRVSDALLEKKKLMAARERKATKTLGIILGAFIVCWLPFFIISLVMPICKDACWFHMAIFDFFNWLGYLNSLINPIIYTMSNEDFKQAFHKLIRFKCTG
Sequence of Cytochrome P450 3A4 (P08684 whole entry): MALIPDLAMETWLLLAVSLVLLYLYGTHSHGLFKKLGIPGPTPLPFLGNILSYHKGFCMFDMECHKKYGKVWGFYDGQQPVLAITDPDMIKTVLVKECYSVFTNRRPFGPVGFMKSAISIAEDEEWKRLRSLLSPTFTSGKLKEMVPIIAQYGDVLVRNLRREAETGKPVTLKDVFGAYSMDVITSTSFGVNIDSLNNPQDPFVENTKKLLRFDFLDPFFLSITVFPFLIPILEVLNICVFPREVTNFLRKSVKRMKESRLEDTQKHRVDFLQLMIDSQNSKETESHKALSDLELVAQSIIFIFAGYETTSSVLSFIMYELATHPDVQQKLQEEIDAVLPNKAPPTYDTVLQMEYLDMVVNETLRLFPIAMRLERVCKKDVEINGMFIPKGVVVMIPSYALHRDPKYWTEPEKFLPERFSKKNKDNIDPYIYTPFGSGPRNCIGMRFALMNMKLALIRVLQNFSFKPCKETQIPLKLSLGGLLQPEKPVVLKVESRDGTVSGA
Sequence of Histamine H2 receptor (P25021 whole entry): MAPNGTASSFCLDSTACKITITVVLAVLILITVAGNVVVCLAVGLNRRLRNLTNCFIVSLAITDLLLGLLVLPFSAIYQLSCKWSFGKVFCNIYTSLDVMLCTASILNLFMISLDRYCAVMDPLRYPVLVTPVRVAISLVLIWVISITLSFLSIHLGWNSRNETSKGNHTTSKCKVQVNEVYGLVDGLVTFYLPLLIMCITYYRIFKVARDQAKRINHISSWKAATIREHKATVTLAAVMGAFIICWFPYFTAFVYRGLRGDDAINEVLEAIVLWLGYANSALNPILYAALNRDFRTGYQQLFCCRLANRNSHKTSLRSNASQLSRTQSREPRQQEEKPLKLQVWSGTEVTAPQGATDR
Sequence of Melanocortin receptor 4 (P32245 whole entry): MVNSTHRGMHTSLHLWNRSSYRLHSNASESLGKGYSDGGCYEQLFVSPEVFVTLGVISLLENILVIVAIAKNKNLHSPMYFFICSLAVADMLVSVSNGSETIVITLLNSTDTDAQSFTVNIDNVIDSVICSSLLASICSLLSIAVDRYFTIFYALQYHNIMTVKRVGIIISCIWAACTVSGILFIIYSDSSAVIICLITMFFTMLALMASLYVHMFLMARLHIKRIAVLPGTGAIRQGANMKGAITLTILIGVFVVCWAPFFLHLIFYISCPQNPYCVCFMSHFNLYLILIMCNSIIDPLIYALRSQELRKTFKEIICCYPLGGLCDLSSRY
Sequence of Substance-P receptor (P25103 whole entry): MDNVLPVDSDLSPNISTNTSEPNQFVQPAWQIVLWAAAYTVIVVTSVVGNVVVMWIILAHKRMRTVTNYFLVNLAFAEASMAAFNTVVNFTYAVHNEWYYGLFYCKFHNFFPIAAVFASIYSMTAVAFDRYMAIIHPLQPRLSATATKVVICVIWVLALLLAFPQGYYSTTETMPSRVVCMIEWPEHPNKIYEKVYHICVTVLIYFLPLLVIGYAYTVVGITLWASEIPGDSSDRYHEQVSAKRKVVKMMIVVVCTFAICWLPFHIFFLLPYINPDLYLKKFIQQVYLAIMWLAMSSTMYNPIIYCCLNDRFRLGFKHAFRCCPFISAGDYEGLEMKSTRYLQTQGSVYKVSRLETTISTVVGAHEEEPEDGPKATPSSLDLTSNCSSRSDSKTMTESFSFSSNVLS

CCC1(c2ccccc2)C(=O)NCNC1=O [PRIMIDONE]
Not Active: IC50 [1] | IC50 [2] | Ki [2] | IC50 [3] | Ki [3] | IC50 [4] | Ki [4] | IC50 [5] | IC50 [6] | IC50 [7] | Ki [7] | IC50 [8] | IC50 [9] | Ki [9] | IC50 [10] | IC50 [11] | IC50 [12] | Ki [12] | IC50 [13] | IC50 [14] | IC50 [15] | Ki [15] | IC50 [16]

CC1(C)[C@@H](O[C@H]2O[C@H](C(=O)O)[C@@H](O)[C@H](O)[C@H]2O[C@@H]2O[C@H](C(=O)O)[C@@H](O)[C@H](O)[C@H]2O)CC[C@]2(C)[C@H]3C(=O)C=C4[C@@H]5C[C@@](C)(C(=O)O)CC[C@]5(C)CC[C@@]4(C)[C@]3(C)CC[C@@H]12 [GLYCYRRHIZIN]
Not Active: IC50 [1] | IC50 [2] | Ki [2] | IC50 [3] | Ki [3] | IC50 [4] | Ki [4] | IC50 [5] | IC50 [6] | IC50 [7] | Ki [7] | IC50 [8] | IC50 [9] | Ki [9] | IC50 [10] | IC50 [11] | IC50 [12] | Ki [12] | IC50 [13] | IC50 [14] | IC50 [15] | Ki [15] | IC50 [16]

CC(C)n1c(/C=C/C(O)CC(O)CC(=O)O)c(-c2ccc(F)cc2)c2ccccc21 (configuration not stated) [FLUVASTATIN]
Not Active: IC50 [1] | IC50 [2] | Ki [2] | IC50 [3] | Ki [3] | IC50 [4] | Ki [4] | IC50 [5] | IC50 [6] | IC50 [7] | Ki [7] | IC50 [8] | IC50 [9] | Ki [9] | IC50 [10] | IC50 [11] | IC50 [12] | Ki [12] | IC50 [13] | IC50 [14] | IC50 [15] | Ki [15] | IC50 [16]

COc1ccc2c(c1)c(CC(=O)OCC(=O)O)c(C)n2C(=O)c1ccc(Cl)cc1 [ACEMETACIN]
Not Active: IC50 [1] | IC50 [2] | Ki [2] | IC50 [3] | Ki [3] | IC50 [4] | Ki [4] | IC50 [5] | IC50 [6] | IC50 [7] | Ki [7] | IC50 [8] | IC50 [9] | Ki [9] | IC50 [10] | IC50 [11] | IC50 [12] | Ki [12] | IC50 [13] | IC50 [14] | IC50 [15] | Ki [15] | IC50 [16]
